These results are taken from ChEMBL document CHEMBL4680176, “Identification of DOT1L inhibitors by structure-based virtual screening adapted from a nucleoside-focused library” (Eur J Med Chem, 2020).

The target in test [1] is T1, Histone H3 methyltransferase DOT1 variant d (Mus musculus) (UniProt Q679P4).
T1 sequence (whole entry): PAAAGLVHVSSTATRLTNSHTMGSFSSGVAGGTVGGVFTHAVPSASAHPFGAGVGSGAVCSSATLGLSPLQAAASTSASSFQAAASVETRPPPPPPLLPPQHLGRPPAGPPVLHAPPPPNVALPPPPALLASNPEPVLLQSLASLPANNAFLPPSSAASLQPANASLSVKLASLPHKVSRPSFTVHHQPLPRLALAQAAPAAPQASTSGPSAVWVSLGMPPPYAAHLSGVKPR
The test can be described thus: Inhibition of DOT1L in mouse bone marrow cell transformed with MLL-AF9 cells assessed as reduction in H3K79 methylation measured after 9 days by Western blot analysis. The test is classed as cell-based. Particulars: dose 1-30 µM, time 9.0 day. (In general: A western blot detects proteins with antibodies after separation by electrophoresis.)

The target in test [2] is T2, Protein arginine N-methyltransferase 7 (Homo sapiens, UniProt Q9NVM4).
T2 sequence (Q9NVM4 whole entry): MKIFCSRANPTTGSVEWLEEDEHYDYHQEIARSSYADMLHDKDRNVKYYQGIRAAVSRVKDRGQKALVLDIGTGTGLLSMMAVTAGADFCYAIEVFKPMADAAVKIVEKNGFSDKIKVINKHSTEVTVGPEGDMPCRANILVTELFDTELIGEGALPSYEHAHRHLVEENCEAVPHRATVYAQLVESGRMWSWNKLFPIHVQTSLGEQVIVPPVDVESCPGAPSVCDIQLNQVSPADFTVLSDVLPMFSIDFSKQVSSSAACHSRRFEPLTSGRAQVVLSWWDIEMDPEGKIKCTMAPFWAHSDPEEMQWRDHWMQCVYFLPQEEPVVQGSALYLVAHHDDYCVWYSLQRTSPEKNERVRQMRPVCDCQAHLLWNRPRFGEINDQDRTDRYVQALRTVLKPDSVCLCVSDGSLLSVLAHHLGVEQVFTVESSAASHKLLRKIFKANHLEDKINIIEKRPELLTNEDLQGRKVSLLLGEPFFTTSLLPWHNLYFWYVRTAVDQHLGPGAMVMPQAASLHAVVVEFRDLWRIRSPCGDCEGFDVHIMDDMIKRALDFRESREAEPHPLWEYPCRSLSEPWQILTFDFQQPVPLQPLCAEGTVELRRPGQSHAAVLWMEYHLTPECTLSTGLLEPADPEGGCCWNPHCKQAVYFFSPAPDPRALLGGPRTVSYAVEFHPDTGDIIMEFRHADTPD
Kind of test: Inhibition of recombinant human PRMT7 using GST-GAR as substrate by hotspot assay.

The target of test [3] is T3, Histone-lysine N-methyltransferase, H3 lysine-79 specific (Homo sapiens, UniProt Q8TEK3). Kind of test: Binding affinity to recombinant human N-terminal GST-tagged DOT1L (1 to 420 residues) expressed in Escherichia coli BL21 (DE3) assessed as increase in melting temperature incubated for 1 min by 1,8-ANS probe based thermal shift assay.
Target sequence in this assay (Q8TEK3 whole entry, looked up, the tested form may be a part): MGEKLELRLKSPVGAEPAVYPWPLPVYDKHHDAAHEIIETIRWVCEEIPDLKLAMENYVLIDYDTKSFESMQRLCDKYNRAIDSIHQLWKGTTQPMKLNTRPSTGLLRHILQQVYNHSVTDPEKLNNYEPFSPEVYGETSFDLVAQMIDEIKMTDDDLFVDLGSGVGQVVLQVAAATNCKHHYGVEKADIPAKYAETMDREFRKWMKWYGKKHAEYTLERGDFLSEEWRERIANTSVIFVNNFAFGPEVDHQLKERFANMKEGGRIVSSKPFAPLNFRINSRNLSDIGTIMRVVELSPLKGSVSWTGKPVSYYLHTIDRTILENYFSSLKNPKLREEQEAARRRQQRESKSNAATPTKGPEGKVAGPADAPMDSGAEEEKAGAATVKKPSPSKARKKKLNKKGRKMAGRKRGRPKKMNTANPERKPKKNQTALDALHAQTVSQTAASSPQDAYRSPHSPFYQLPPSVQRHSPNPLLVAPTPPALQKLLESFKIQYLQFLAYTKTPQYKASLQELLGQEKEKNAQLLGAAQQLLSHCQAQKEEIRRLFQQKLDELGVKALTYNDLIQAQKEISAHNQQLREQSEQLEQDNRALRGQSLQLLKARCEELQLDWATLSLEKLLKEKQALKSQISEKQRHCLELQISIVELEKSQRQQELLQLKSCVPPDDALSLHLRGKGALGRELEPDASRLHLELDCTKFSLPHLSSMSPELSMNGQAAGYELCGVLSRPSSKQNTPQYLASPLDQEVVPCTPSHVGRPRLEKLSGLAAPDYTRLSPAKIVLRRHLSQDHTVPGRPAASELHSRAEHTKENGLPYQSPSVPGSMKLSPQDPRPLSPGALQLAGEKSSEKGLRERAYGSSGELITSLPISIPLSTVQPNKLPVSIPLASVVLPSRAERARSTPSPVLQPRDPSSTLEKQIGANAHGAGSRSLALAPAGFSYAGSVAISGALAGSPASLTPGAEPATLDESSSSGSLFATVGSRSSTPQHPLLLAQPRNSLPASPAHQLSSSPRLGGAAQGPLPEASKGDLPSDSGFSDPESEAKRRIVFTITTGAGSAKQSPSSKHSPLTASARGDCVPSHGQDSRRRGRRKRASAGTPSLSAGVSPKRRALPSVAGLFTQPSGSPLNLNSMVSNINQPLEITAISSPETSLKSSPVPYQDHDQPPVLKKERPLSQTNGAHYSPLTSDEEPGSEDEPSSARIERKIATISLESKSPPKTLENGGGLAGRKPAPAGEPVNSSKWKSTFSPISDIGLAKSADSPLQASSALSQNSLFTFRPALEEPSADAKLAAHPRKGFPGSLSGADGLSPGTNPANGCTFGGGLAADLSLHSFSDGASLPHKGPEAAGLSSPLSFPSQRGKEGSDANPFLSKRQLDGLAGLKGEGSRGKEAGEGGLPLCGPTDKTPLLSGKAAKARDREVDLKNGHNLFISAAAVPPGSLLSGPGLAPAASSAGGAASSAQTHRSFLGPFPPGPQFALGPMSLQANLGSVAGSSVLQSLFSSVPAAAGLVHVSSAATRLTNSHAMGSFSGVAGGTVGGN
For test [4], the target named is T1, Histone H3 methyltransferase DOT1 variant d (Mus musculus). The test can be described thus: Inhibition of DOT1L in mouse bone marrow cell transformed with MLL-AF9 cells assessed as reduction in H3K79 methylation measured after 6 days by Western blot analysis. It is filed as cell-based. Particulars: time 6.0 day.
Test [5] deals with T3, Histone-lysine N-methyltransferase, H3 lysine-79 specific. Kind of test: Inhibition of recombinant human N-terminal GST-tagged DOT1L (1 to 420 residues) expressed in Escherichia coli BL21 (DE3) using histone as substrate incubated for 1 hr by MTase-glo based luminescence assay.
Target sequence in this assay (Q8TEK3 whole entry, the tested form may be a part): as the sequence (Q8TEK3 whole entry, looked up, the tested form may be a part) above
Test [6] deals with T1, Histone H3 methyltransferase DOT1 variant d (Mus musculus). Kind of test: Inhibition of DOT1L in mouse bone marrow cell transformed with MLL-AF9 cells assessed as reduction in […] methylation at 1 to 30 uM measured after 6 days by Western blot analysis. The test is classed as cell-based. Particulars: dose 1-30 µM, time 6.0 day.
The target is the same in test [7]. Kind of test: Inhibition of DOT1L in mouse bone marrow cell transformed with MLL-AF9 cells assessed as reduction in H3K4me3 methylation at 1 to 30 uM measured after 6 days by Western blot analysis. The test is classed as cell-based. Particulars: dose 1-30 µM, time 6.0 day.
Another test has as its system Bone marrow cell. Kind of test: Antiproliferative activity against mouse bone marrow cell transformed with MLL-AF9 assessed as reduction in cell growth measured after 9 days by hemocytometry. It is filed as functional, cell-based. Particulars: 216 h.

The source made the active and inactive calls. The rule behind the calls is not given here.

For orientation: IC50 means the concentration that inhibits the measured activity by half. On to `CC(C)(C)c1ccc(NC(=O)c2ncn(CC(=O)NCCn3ccc4c(N)ncnc43)n2)cc1`, for which the inhibition result in test [1] and in test [4] was “Dose-dependent effect” each time. Further, the IC50 result is “Not Active” in test [2], 1000 nM in test [5] and 4200 nM in the test with Bone marrow cell. The Activity result in test [3] is “Dose-dependent effect”. The inhibition entry in test [6] and in test [7] was “inactive” each time.
